Values quoted from earlier work, collected in patent US20050027113A1, “Compositions and methods relating to the daptomycin biosynthetic gene cluster” (priority 2001, published 2005).

How the values were obtained:
[1] = administration of daptomycin and an aminoglycoside
[2] = test system: gram-positive organisms

CCCCCCCCCC(=O)N[C@@H](Cc1c[nH]c2ccccc12)C(=O)N[C@H](CC(N)=O)C(=O)N[C@@H](CC(=O)O)C(=O)N[C@@H]1C(=O)NCC(=O)N[C@@H](CCCN)C(=O)N[C@@H](CC(=O)O)C(=O)N[C@H](C)C(=O)N[C@@H](CC(=O)O)C(=O)NCC(=O)N[C@H](CO)C(=O)N[C@@H]([C@H](C)CC(=O)O)C(=O)N[C@@H](CC(=O)c2ccccc2N)C(=O)O[C@@H]1C [daptomycin]
effect on renal toxicity caused by a co-administered aminoglycoside [1]: may ameliorate renal toxicity caused by the aminoglycoside | antibacterial activity against classically resistant strains versus classically susceptible strains ([2]; in vitro experiments): comparable | minimum inhibitory concentration (MIC) value against susceptible strains, relative to vancomycin ([2]; susceptible strains, fold lower than vancomycin): ~4 fold | bactericidal activity against gram-positive organisms ([2]; unlike glycopeptide antibiotics): rapid, concentration-dependent bactericidal activity
